This is an account of results in paper PMC7125560 (Bioorganic & Medicinal Chemistry, 2007).

For one assay, the system named is SARS-CoV. As to conditions: read-out: EC50 (SARS-CoV); cited from earlier work.
Assay [1] relates to HCV subgenomic replicon RNA. Nature of the assay: real-time RT-PCR quantification of replicon RNA. In kind it is cell-based, hepatitis C virus (HCV). As to conditions: two-day incubation.

Bounds are passed on as bounds.

Consider `OC[C@H]1C[C@@H](n2cnc3c(Cl)ncnc32)[C@@H]1CO` [Compound 6], for which the EC50 in the assay on SARS-CoV is more than 300 µM. Regarding `O=C(OC[C@H]1C[C@@H](n2cnc3c(Cl)ncnc32)[C@@H]1CO)c1ccccc1` [Compound 5], the EC50 in the assay with SARS-CoV was 14.5 µM.

With `O=C(OC[C@H]1O[C@@H](n2cnc3c(Cl)ncnc32)C[C@@H]1O)c1ccccc1` [Compound 10, 9-(5-O-benzoyl-β-D-2-deoxyribofuranosyl)-6-chloropurine], the “replicon RNA amount” value was “approximately 45%” in assay [1] (12.5 μM) and approximately 6% in assay [1] (25 μM).
